Assay results taken from ChEMBL document CHEMBL1201862, “PubChem BioAssay data set” (2004).
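Each compound was tested at five concentrations against cells in 96-well plates for 48 hours. The concentration for 50% growth inhibition is given as GI50.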 The source made the active and inactive calls. No stated cut-off is given here; in the data, active = GI50 up to about 1.1 µM and inactive = higher.

Experiments:
Test in all cases: growth of human tumour cells (NCI), 48 h
HCT-116 = system: HCT-116
U-251 = system: U-251
OVCAR-5 = system: OVCAR-5
SR = system: SR
SN12C = system: SN12C
SF-295 = system: SF-295
UACC-62 = system: UACC-62
PC-3 = system: PC-3
TK-10 = system: TK-10
EKVX = system: EKVX
OVCAR-8 = system: OVCAR-8
HT-29 = system: HT-29
Hs-578T = system: Hs-578T
NCI-H522 = system: NCI-H522
NCI/ADR-RES = system: NCI/ADR-RES
OVCAR-4 = system: OVCAR-4
CCRF-CEM = system: CCRF-CEM
K562 = system: K562
OVCAR-3 = system: OVCAR-3
HOP-92 = system: HOP-92

Structure (SMILES): O=C(Nc1cccc(Cl)c1)Nn1cnnc1
- GI50 (HCT-116): > 100 µM (inactive)
- GI50 (U-251): > 100 µM (inactive)
- GI50 (OVCAR-5): 0.339 µM (active)
- GI50 (SR): > 100 µM (inactive)
- GI50 (SN12C): > 100 µM (inactive)
- GI50 (SF-295): > 100 µM (inactive)
- GI50 (UACC-62): > 100 µM (inactive)
- GI50 (PC-3): > 100 µM (inactive)
- GI50 (TK-10): > 100 µM (inactive)
- GI50 (EKVX): > 100 µM (inactive)
- GI50 (OVCAR-8): > 100 µM (inactive)
- GI50 (HT-29): > 100 µM (inactive)
- GI50 (Hs-578T): > 100 µM (inactive)
- GI50 (NCI-H522): > 100 µM (inactive)
- GI50 (NCI/ADR-RES): > 100 µM (inactive)
- GI50 (OVCAR-4): > 100 µM (inactive)
- GI50 (CCRF-CEM): > 100 µM (inactive)
- GI50 (K562): > 100 µM (inactive)
- GI50 (OVCAR-3): > 100 µM (inactive)
- GI50 (HOP-92): > 100 µM (inactive)

Structure (SMILES): CC(=O)Oc1cc2c(cc1OCC(F)(F)F)[C@H]1CC[C@]3(C)[C@@H](OC(C)=O)CC[C@H]3[C@@H]1CC2=O
- GI50 (HCT-116): 19.3 µM (inactive)
- GI50 (U-251): 16.4 µM (inactive)
- GI50 (OVCAR-5): 19.8 µM (inactive)
- GI50 (SR): 20.7 µM (inactive)
- GI50 (SN12C): 21 µM (inactive)
- GI50 (SF-295): 25.1 µM (inactive)
- GI50 (UACC-62): 12.2 µM (inactive)
- GI50 (PC-3): 14.5 µM (inactive)
- GI50 (TK-10): 17.5 µM (inactive)
- GI50 (EKVX): 22.8 µM (inactive)
- GI50 (OVCAR-8): 20.9 µM (inactive)
- GI50 (HT-29): 23.9 µM (inactive)
- GI50 (Hs-578T): 13.7 µM (inactive)
- GI50 (NCI-H522): 20 µM (inactive)
- GI50 (NCI/ADR-RES): 15.3 µM (inactive)
- GI50 (OVCAR-4): 17.5 µM (inactive)
- GI50 (CCRF-CEM): 15.3 µM (inactive)
- GI50 (K562): 16.6 µM (inactive)
- GI50 (OVCAR-3): 19.5 µM (inactive)
- GI50 (HOP-92): 13.2 µM (inactive)

Structure (SMILES): Cc1c(-c2nc(N)nc(C3CC3)c2C)nc(N)nc1C1CC1
- GI50 (HCT-116): > 100 µM (inactive)
- GI50 (U-251): > 100 µM (inactive)
- GI50 (OVCAR-5): > 100 µM (inactive)
- GI50 (SR): > 100 µM (inactive)
- GI50 (SN12C): > 100 µM (inactive)
- GI50 (SF-295): > 100 µM (inactive)
- GI50 (UACC-62): > 100 µM (inactive)
- GI50 (PC-3): > 100 µM (inactive)
- GI50 (TK-10): > 100 µM (inactive)
- GI50 (EKVX): > 100 µM (inactive)
- GI50 (OVCAR-8): > 100 µM (inactive)
- GI50 (HT-29): > 100 µM (inactive)
- GI50 (Hs-578T): > 100 µM (inactive)
- GI50 (NCI-H522): > 100 µM (inactive)
- GI50 (NCI/ADR-RES): > 100 µM (inactive)
- GI50 (OVCAR-4): > 100 µM (inactive)
- GI50 (CCRF-CEM): > 100 µM (inactive)
- GI50 (K562): > 100 µM (inactive)
- GI50 (OVCAR-3): > 100 µM (inactive)
- GI50 (HOP-92): > 100 µM (inactive)

Structure (SMILES): COc1ccc(SCc2cc(OC)ccc2OC)cc1
- GI50 (HCT-116): 33.8 µM (inactive)
- GI50 (U-251): 11.2 µM (inactive)
- GI50 (OVCAR-5): 24.5 µM (inactive)
- GI50 (SR): 6.55 µM (inactive)
- GI50 (SN12C): 55.3 µM (inactive)
- GI50 (SF-295): 32.2 µM (inactive)
- GI50 (UACC-62): 18.8 µM (inactive)
- GI50 (PC-3): 32.8 µM (inactive)
- GI50 (TK-10): > 93.3 µM (inactive)
- GI50 (EKVX): > 56.1 µM (inactive)
- GI50 (OVCAR-8): 96.4 µM (inactive)
- GI50 (HT-29): 13.7 µM (inactive)
- GI50 (Hs-578T): 29.5 µM (inactive)
- GI50 (NCI-H522): 18.8 µM (inactive)
- GI50 (NCI/ADR-RES): 13.2 µM (inactive)
- GI50 (OVCAR-4): 20.8 µM (inactive)
- GI50 (CCRF-CEM): 17.5 µM (inactive)
- GI50 (K562): 4.24 µM (inactive)
- GI50 (OVCAR-3): > 40.6 µM (inactive)
- GI50 (HOP-92): 13.5 µM (inactive)

Structure (SMILES): CCCCCCCCCCCCC1N=C(N)N2CCCC2=C1C(=O)OC (stereo not given)
- GI50 (HCT-116): 1.73 µM (inactive)
- GI50 (U-251): 1.65 µM (inactive)
- GI50 (OVCAR-5): 6.25 µM (inactive)
- GI50 (SR): 2.13 µM (inactive)
- GI50 (SN12C): 2.75 µM (inactive)
- GI50 (SF-295): 1.78 µM (inactive)
- GI50 (UACC-62): 1.74 µM (inactive)
- GI50 (PC-3): 1.62 µM (inactive)
- GI50 (TK-10): 7.62 µM (inactive)
- GI50 (EKVX): 14.7 µM (inactive)
- GI50 (OVCAR-8): 2.49 µM (inactive)
- GI50 (HT-29): 1.67 µM (inactive)
- GI50 (Hs-578T): 2.25 µM (inactive)
- GI50 (NCI-H522): 1.76 µM (inactive)
- GI50 (NCI/ADR-RES): 5.92 µM (inactive)
- GI50 (OVCAR-4): 2.31 µM (inactive)
- GI50 (CCRF-CEM): 1.61 µM (inactive)
- GI50 (K562): 1.38 µM (inactive)
- GI50 (OVCAR-3): 2.14 µM (inactive)
- GI50 (HOP-92): 4.35 µM (inactive)

Structure (SMILES): C/N=C(\N)N/N=C(\C)c1ccc2oc3ccc(/C(C)=N/N/C(N)=N/C)cc3c2c1
- GI50 (HCT-116): 2.79 µM (inactive)
- GI50 (U-251): 1.61 µM (inactive)
- GI50 (OVCAR-5): 9.35 µM (inactive)
- GI50 (SR): 1.51 µM (inactive)
- GI50 (SN12C): 2.46 µM (inactive)
- GI50 (SF-295): 3.85 µM (inactive)
- GI50 (UACC-62): 2.88 µM (inactive)
- GI50 (PC-3): 3.01 µM (inactive)
- GI50 (TK-10): 4.38 µM (inactive)
- GI50 (EKVX): 4.24 µM (inactive)
- GI50 (OVCAR-8): 9.27 µM (inactive)
- GI50 (HT-29): 1.73 µM (inactive)
- GI50 (Hs-578T): 1.43 µM (inactive)
- GI50 (NCI-H522): 1.67 µM (inactive)
- GI50 (NCI/ADR-RES): > 39.1 µM (inactive)
- GI50 (OVCAR-4): 3.8 µM (inactive)
- GI50 (CCRF-CEM): 2.39 µM (inactive)
- GI50 (K562): 2.15 µM (inactive)
- GI50 (OVCAR-3): 2.64 µM (inactive)
- GI50 (HOP-92): 2.07 µM (inactive)

Structure (SMILES): N/C(=N\N=C\c1nc2ccccc2o1)c1cnccn1
- GI50 (HCT-116): > 100 µM (inactive)
- GI50 (U-251): 35.6 µM (inactive)
- GI50 (OVCAR-5): > 100 µM (inactive)
- GI50 (SR): > 100 µM (inactive)
- GI50 (SN12C): > 100 µM (inactive)
- GI50 (SF-295): 87.9 µM (inactive)
- GI50 (UACC-62): > 100 µM (inactive)
- GI50 (PC-3): > 100 µM (inactive)
- GI50 (TK-10): 30.7 µM (inactive)
- GI50 (EKVX): > 100 µM (inactive)
- GI50 (OVCAR-8): > 100 µM (inactive)
- GI50 (HT-29): > 100 µM (inactive)
- GI50 (Hs-578T): > 100 µM (inactive)
- GI50 (NCI-H522): > 100 µM (inactive)
- GI50 (NCI/ADR-RES): > 100 µM (inactive)
- GI50 (OVCAR-4): > 100 µM (inactive)
- GI50 (CCRF-CEM): > 100 µM (inactive)
- GI50 (K562): > 100 µM (inactive)
- GI50 (OVCAR-3): > 100 µM (inactive)
- GI50 (HOP-92): > 100 µM (inactive)
